From patent publication US20090149484A1, “QUINAZOLIN-4-ONE DERIVATIVES, PROCESS FOR THEIR PREPARATION AND PHARMACEUTICAL COMPOSITIONS CONTAINING THEM” (ASTRAZENECA AB, priority 2006, published 2009) come the findings set out here.

Molecules are shown by their SMILES. pIC50: −log10 of the molar value.

The target of the assay is T1, His-tagged Mutant B-Raf (V600E) enzyme (MT B-Raf) (Homo sapiens, UniProt P15056, V600E).
T1 construct: purified full length His-tagged Mutant B-Raf (V600E) enzyme; made in house; host or cells: insect cells
T1 sequence (P15056 whole entry V600E): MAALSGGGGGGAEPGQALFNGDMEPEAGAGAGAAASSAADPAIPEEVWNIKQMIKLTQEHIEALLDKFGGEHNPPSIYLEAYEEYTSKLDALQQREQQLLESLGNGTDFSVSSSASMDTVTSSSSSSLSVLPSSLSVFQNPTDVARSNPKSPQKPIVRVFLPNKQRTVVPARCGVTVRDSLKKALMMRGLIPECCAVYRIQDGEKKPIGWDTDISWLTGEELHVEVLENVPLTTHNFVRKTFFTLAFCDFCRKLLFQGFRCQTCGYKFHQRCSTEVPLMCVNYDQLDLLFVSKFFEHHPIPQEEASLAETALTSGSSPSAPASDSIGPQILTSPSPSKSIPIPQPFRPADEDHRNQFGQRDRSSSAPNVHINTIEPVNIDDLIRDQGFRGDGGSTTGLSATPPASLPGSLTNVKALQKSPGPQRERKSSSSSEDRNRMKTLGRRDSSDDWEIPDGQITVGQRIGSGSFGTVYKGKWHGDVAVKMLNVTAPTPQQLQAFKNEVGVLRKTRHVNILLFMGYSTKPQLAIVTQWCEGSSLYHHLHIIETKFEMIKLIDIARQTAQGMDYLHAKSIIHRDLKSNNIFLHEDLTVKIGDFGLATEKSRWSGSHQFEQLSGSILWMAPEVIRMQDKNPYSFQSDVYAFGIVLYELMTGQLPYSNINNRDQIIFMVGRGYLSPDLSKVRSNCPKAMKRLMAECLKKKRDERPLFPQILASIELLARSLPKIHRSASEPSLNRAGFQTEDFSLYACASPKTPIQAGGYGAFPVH
Nature of the assay: B-Raf in-vitro AlphaScreen assay. Format: biochemical. The conditions noted are these: phosphorylation of biotinylated HIS-MEK-AVI, 0.12 nM MT B-Raf, 24 μM ATP in mix. The procedure: B-Raf in-Vitro AlphaScreen Assay
Activity of purified full length His-tagged Mutant B-Raf (V600E) enzyme (MT B-Raf) was determined in-vitro using an Amplified Luminescent Proximity Homogeneous Assay (ALPHA)(Perkin Elmer, Mass.), which measures phosphorylation of the MT B-Raf substrate, biotinylated HIS-MEK-AVI (PLAZA internal database, construct #pAZB0141), as described below. MT B-Raf was expressed in insect cells and affinity purified by Ni^+2 agarose followed by Q-Sepharose chromatography. Typical yield was 1.08 mg/ml at >90% purity. The phosphorylation of the MT B-Raf substrate in the presence and absence of the compound of interest was determined. Briefly, 5 μl of enzyme/substrate/adenosine triphosphate (ATP) mix consisting of 0.12 nM MT B-Raf, 84 nM biotinylated HIS-MEK-AVI, and 24 μM ATP in 1.2× buffer was preincubated with 2 ul of compound for 20 minutes at 25° C. Reactions were initiated with 5 μl of Metal mix consisting of 24 mM MgCl2 in 1.2× buffer and incubated at 25° C. for 60 minutes and reactions were stopped by addition of 5 μl of Detection mix consisting of 20 mM HEPES, 102 mM ethylenediamine tetraacetic acid, 1.65 mg/ml BSA, 136 mM NaCl, 3.4 nM Phospho-MEK1/2 (Ser217/221) antibody (Catalog #9121, Cell Signaling Technology, MA), 40 μg/ml Streptavidin donor beads (Perkin Elmer, MA, Catalog #6760002), and 40 μg/ml Protein A acceptor beads (Perkin Elmer, MA, Catalog #6760137). Plates were incubated at 25° C. for 18 hours in the dark. Phosphorylated substrate was detected by an EnVision plate reader (Perkin Elmer, MA) 680 nm excitation, 520-620 nm emission. Data was graphed and IC50s calculated using Excel Fit (Microsoft).
For orientation: Alpha assays give light when donor and acceptor beads are brought close together.
With `Cn1cnc2ccc(Oc3ccc(NC(=O)Nc4ccc(Cl)c(C(F)(F)F)c4)cc3)cc2c1=O` [Example 1, N-[4-Chloro-3-(trifluoromethyl)phenyl]-N′-{-4-[(3-methyl-4-oxo-3,4-dihydroquinazolin-6-yl)oxy]phenyl}urea], the pIC50 (usually −log10 of the IC50, conventionally taken in molar units) was 6.54.
The molecule `Cc1cc(NC(=O)Nc2ccc(Cl)c(C(F)(F)F)c2)ccc1Oc1ccc2ncn(C)c(=O)c2c1` [Example 3, N-[4-Chloro-3-(trifluoromethyl)phenyl]-N′-{3-methyl-4-[(3-methyl-4-oxo-3,4-dihydroquinazolin-6-yl)oxy]phenyl}urea] gave a negative logarithm of the IC50 (pIC50) of 6.69.
In turn, `Cn1cnc2ccc(Oc3ccc(NC(=O)Nc4cccc(C(F)(F)F)c4F)cc3)cc2c1=O` [Example 7, N-[2-Fluoro-3-(trifluoromethyl)phenyl]-N′-{4-[(3-methyl-4-oxo-3,4-dihydroquinazolin-6-yl)oxy]phenyl}urea] had a pIC50 of 6.47.
